# In PMC4965013, “Open Source Drug Discovery with the Malaria Box Compound Collection for Neglected Diseases and Beyond” (PLoS Pathogens, 2016):
# Experiments:
# [1] = tested on: P. falciparum 3D7 trophozoites; assay: Metabolomic fingerprint profiling LC-MS; assay type: cell-based, Plasmodium falciparum; design: UDP-D-glucose / ADP-D-glucose: unit not given here; conditions: for Acetyllysine / N-acetyl-L-ornithine / N-carbamoyl-L-aspartate / NADPH / dAMP / dCMP / dTDP / dTMP / dTTP / dihydroorotate / orotate / DLH / DLS/SDL/SID / PD / PEE / PVNF / 3-phosphoglycerate / ADP-D-glucose / ATP / CDP / D-sedoheptulose-1/7-phosphate / FAD / GMP / NAD+ / NADP+ / Octoluse Bisphosphate / Pyroglutamic acid / UDP-D-glucose / UDP-D-glucuronate / UDP-N-acetyl-glucosamine / UDP / UMP / UTP / a-ketoglutarate / citrate/isocitrate / cytidine / dATP / dGMP/AMP / fumarate / glucose-1/6-phosphate / glycerate / guanine / guanosine / hypoxanthine / indole / inosine / nicotinate / ornithine / phosphoenolpyruvate / pyruvate / ribose-phosphate / sarcosine/alanine / sn-glycerol-3-phosphate / succinate/methylmalonic acid / uridine / xanthosine: S2 Table Metabolomics; for Acetyllysine: metabolite Acetyllysine; for N-acetyl-L-ornithine: metabolite N-acetyl-L-ornithine; for N-carbamoyl-L-aspartate: metabolite N-carbamoyl-L-aspartate; for NADPH: metabolite NADPH; for dAMP: metabolite dAMP; for dCMP: metabolite dCMP; for dTDP: metabolite dTDP; for dTMP: metabolite dTMP; for dTTP: metabolite dTTP; for dihydroorotate: metabolite dihydroorotate; for orotate: metabolite orotate; for DLH: peptide DLH; for DLS/SDL/SID: peptide DLS/SDL/SID; for PD: peptide PD; for PEE: peptide PEE; for PVNF: peptide PVNF; for 3-phosphoglycerate: metabolite 3-phosphoglycerate; for ADP-D-glucose: metabolite ADP-D-glucose; for ATP: metabolite ATP; for CDP: metabolite CDP; for CDP / D-sedoheptulose-1/7-phosphate / GMP / Octoluse Bisphosphate / UDP / UMP / UTP / citrate/isocitrate / dGMP/AMP / fumarate / glucose-1/6-phosphate / glycerate / guanine / guanosine / inosine / pyruvate / sarcosine/alanine / succinate/methylmalonic acid / uridine / xanthosine: change in metabolite level after compound treatment; for D-sedoheptulose-1/7-phosphate: metabolite D-sedoheptulose-1/7-phosphate; for FAD: metabolite FAD; for GMP: metabolite GMP; for NAD+: metabolite NAD+; for NADP+: metabolite NADP+; for Octoluse Bisphosphate: metabolite Octoluse Bisphosphate; for Pyroglutamic acid: metabolite Pyroglutamic acid; for UDP-D-glucose: metabolite UDP-D-glucose; for UDP-D-glucuronate: metabolite UDP-D-glucuronate; for UDP-N-acetyl-glucosamine: metabolite UDP-N-acetyl-glucosamine; for UDP: metabolite UDP; for UMP: metabolite UMP; for UTP: metabolite UTP; for a-ketoglutarate: metabolite a-ketoglutarate; for citrate/isocitrate: metabolite citrate/isocitrate; for cytidine: metabolite cytidine; for dATP: metabolite dATP; for dGMP/AMP: metabolite dGMP/AMP; for fumarate: metabolite fumarate; for glucose-1/6-phosphate: metabolite glucose-1/6-phosphate; for glycerate: metabolite glycerate; for guanine: metabolite guanine; for guanosine: metabolite guanosine; for hypoxanthine: metabolite hypoxanthine; for indole: metabolite indole; for inosine: metabolite inosine; for 2_3-Diphosphoglyceric acid / 4-phosphopantothenate / 6-phospho-D-gluconate / FMN / IMP / Pyrophosphate / Sedoheptoluse bisphosphate / cyclic-AMP / glutathione disulfide / lactate / myo-inositol: metabolite level change after treatment; for nicotinate: metabolite nicotinate; for ornithine: metabolite ornithine; for phosphoenolpyruvate: metabolite phosphoenolpyruvate; for pyruvate: metabolite pyruvate; for ribose-phosphate: metabolite ribose-phosphate; for sarcosine/alanine: metabolite sarcosine/alanine; for sn-glycerol-3-phosphate: metabolite sn-glycerol-3-phosphate; for succinate/methylmalonic acid: metabolite succinate/methylmalonic acid; for uridine: metabolite uridine; for xanthosine: metabolite xanthosine
# [2] = tested on: P. falciparum; assay: EC50 listed in S2 Table Metabolomics (used to set the concentration tested); assay type: cell-based; conditions: Plasmodium falciparum; EC50 used for Factor_XEC50 in metabolomics; read-out: EC50_nM
structure (smiles),measurement,setting,value
COc1ccc(-c2c(C)nn3c(N)c(C#N)cnc23)cc1OC [MMV396797],Acetyllysine,[1],-1.561
same,N-acetyl-L-ornithine,[1],-1.053
same,N-carbamoyl-L-aspartate,[1],1.252
same,NADPH,[1],0.3593
same,dAMP,[1],0.5405
same,dCMP,[1],1.351
same,dTDP,[1],0.6464
same,dTMP,[1],1.055
same,dTTP,[1],0.1329
same,dihydroorotate,[1],0.9521
same,orotate,[1],-0.1403
same,DLH,[1],-2.487
same,DLS/SDL/SID,[1],-1.077
same,PD,[1],-0.9589
same,PEE,[1],-1.335
same,PVNF,[1],-1.44
same,3-phosphoglycerate,[1],-0.332
same,ADP-D-glucose,[1],0.000409
same,ATP,[1],-0.6534
same,CDP,[1],0.6836
same,D-sedoheptulose-1/7-phosphate,[1],0.6682
same,FAD,[1],0.02733
same,GMP,[1],0.6724
same,NAD+,[1],0.9649
same,NADP+,[1],0.1001
same,Octoluse Bisphosphate,[1],-0.3618
same,Pyroglutamic acid,[1],-0.2754
same,UDP-D-glucose,[1],0.1529
same,UDP-D-glucuronate,[1],0.1151
same,UDP-N-acetyl-glucosamine,[1],0.3642
same,UDP,[1],0.7706
same,UMP,[1],0.7638
same,UTP,[1],0.02297
same,a-ketoglutarate,[1],-0.2189
same,citrate/isocitrate,[1],-0.742
same,cytidine,[1],-0.8311
same,dATP,[1],-0.6595
same,dGMP/AMP,[1],0.1443
same,fumarate,[1],-0.5921
same,glucose-1/6-phosphate,[1],0.3476
same,glycerate,[1],-0.7107
same,guanine,[1],-0.1249
same,guanosine,[1],-0.2185
same,hypoxanthine,[1],-0.6773
same,indole,[1],-0.01428
same,inosine,[1],-0.2482
same,2_3-Diphosphoglyceric acid,[1],0.4884
same,4-phosphopantothenate,[1],0.5554
same,6-phospho-D-gluconate,[1],0.1152
same,FMN,[1],0.2278
same,IMP,[1],0.7032
same,Pyrophosphate,[1],0.391
same,Sedoheptoluse bisphosphate,[1],-0.2371
same,cyclic-AMP,[1],0.5443
same,glutathione disulfide,[1],0.05378
same,lactate,[1],-0.5978
same,myo-inositol,[1],-0.8022
same,nicotinate,[1],0.06441
same,ornithine,[1],-0.4887
same,phosphoenolpyruvate,[1],-0.1659
same,pyruvate,[1],-0.5507
same,ribose-phosphate,[1],-0.3757
same,sarcosine/alanine,[1],-0.5535
same,sn-glycerol-3-phosphate,[1],-0.1272
same,succinate/methylmalonic acid,[1],-0.001406
same,uridine,[1],-0.3835
same,xanthosine,[1],-0.6585
same,EC50,[2],477 nM
CCOC(=O)c1cn(CC)c2cc(N3CCCCC3)c(F)cc2c1=O [MMV665827],Acetyllysine,[1],0.6167
same,N-acetyl-L-ornithine,[1],0.5501
same,N-carbamoyl-L-aspartate,[1],4.792
same,NADPH,[1],0.6598
same,dAMP,[1],0.7737
same,dCMP,[1],1.737
same,dTDP,[1],0.1707
same,dTMP,[1],0.8282
same,dTTP,[1],0.03923
same,dihydroorotate,[1],4.825
same,orotate,[1],-0.5812
same,DLH,[1],-0.7896
same,DLS/SDL/SID,[1],0.01567
same,PD,[1],0.7077
same,PEE,[1],-1.44
same,PVNF,[1],-0.1312
same,3-phosphoglycerate,[1],-0.02186
same,ADP-D-glucose,[1],0.2064
same,ATP,[1],0.6896
same,CDP,[1],0.1387
same,D-sedoheptulose-1/7-phosphate,[1],0.4202
same,FAD,[1],0.7349
same,GMP,[1],-0.6725
same,NAD+,[1],0.4401
same,NADP+,[1],0.5706
same,Octoluse Bisphosphate,[1],0.2411
same,Pyroglutamic acid,[1],-0.2796
same,UDP-D-glucose,[1],0.1953
same,UDP-D-glucuronate,[1],-0.1324
same,UDP-N-acetyl-glucosamine,[1],0.2567
same,UDP,[1],0.4721
same,UMP,[1],-1.447
same,UTP,[1],-1.04
same,a-ketoglutarate,[1],-0.2461
same,citrate/isocitrate,[1],-1.463
same,cytidine,[1],0.4678
same,dATP,[1],0.6493
same,dGMP/AMP,[1],0.07314
same,fumarate,[1],-0.2241
same,glucose-1/6-phosphate,[1],1.8807
same,glycerate,[1],-0.09674
same,guanine,[1],1.02
same,guanosine,[1],0.7998
same,hypoxanthine,[1],-0.3352
same,indole,[1],-0.0107
same,inosine,[1],0.5749
same,2_3-Diphosphoglyceric acid,[1],0.1079
same,4-phosphopantothenate,[1],0.2143
same,6-phospho-D-gluconate,[1],0.3355
same,FMN,[1],0.4894
same,IMP,[1],0.7697
same,Pyrophosphate,[1],-1.117
same,Sedoheptoluse bisphosphate,[1],0.6312
same,cyclic-AMP,[1],0.6768
same,glutathione disulfide,[1],0.6276
same,lactate,[1],1.255
same,myo-inositol,[1],2.498
same,nicotinate,[1],-0.197
same,ornithine,[1],0.8346
same,phosphoenolpyruvate,[1],-0.2956
same,pyruvate,[1],0.5345
same,ribose-phosphate,[1],0.3041
same,sarcosine/alanine,[1],0.4367
same,sn-glycerol-3-phosphate,[1],0.2478
same,succinate/methylmalonic acid,[1],-0.3191
same,uridine,[1],0.6011
same,xanthosine,[1],-0.8841
same,EC50,[2],119 nM
